Results as given in patent USRE30886E, “Method and composition for reducing blood glucose levels” (Nippon Shinyaku Company Ltd., priority 1975, dated 1982).

How the values were obtained:
[1] = tested on: Glucose-administered Rats; assay: Inhibitory action against increase of glucose in blood of glucose-administered rats; format: in vivo, Male Sprague Dawley rats; settings: with 2 g/kg glucose; for Blood Glucose Concentration: 5 rats
Experimental: Male Sprague Dawley rats with body weights ranging from 150 to 200 grams were fasted overnight, and then 2 g/kg of glucose was administered orally by using a stomach tube. The compound of this invention was also administered simultaneously in an amount of 10 to 100 mg/kg, and blood was drawn from the tail vein of each rat at suitable time intervals, and blood glucose levels were measured according to a method using glucose oxidase (Blood Sugar Test, TC-M-III, Boehringer Mannheim A.G.).

[2] = tested on: Sucrose-Administered Rats; assay: Inhibitory action against increase of blood glucose for sucrose-administered rats; format: in vivo, Male Sprague Dawley rats; settings: with 2 g/kg sucrose
Experimental: Male Sprague Dawley rats with body weight of 150 to 200 grams were fasted overnight, and 2 g/kg of sucrose was administered orally by using a stomach tube. The compound of this invention was simultaneously administered in a similar way at the rate of 1 to 100 mg/kg, and blood was drawn from the tail vein of each rat at suitable time intervals and blood glucose levels were measured by a method using glucose oxidase.

Starch-Administered Rats = assay: Inhibitory action against increase of blood glucose for starch-administered rats; format: in vivo, Male Sprague Dawley rats; settings: with 1 g/kg starch; for Blood Glucose Concentration: 5 rats
Experimental: Male Sprague Dawley rats with body weight of 150 to 200 grams were fasted overnight, and 1 g/kg of starch was administered orally by using a stomach tube. The compound of this invention was simultaneously administered at the dose of 10 to 100 mg/kg, and blood was drawn from the tail vein of each rat and blood glucose levels were examined by a method using glucose oxidase.

[3] = Acute toxicity (LD50) in mice; format: in vivo; settings: mouse, in vivo
mice = assay: Acute toxicity (LD50) in mice; format: in vivo
healthy = assay: Glucose level in the blood of healthy man after oral carbohydrate; format: in vivo, human; settings: 1 to 1000 mg/kg orally, with 50 to 100 grams of glucose
rats = assay: Antidiabetic action model: glucose level in blood of rats given glucose orally; format: in vivo, Male Sprague Dawley rats; settings: 1 to 1000 mg/kg, with glucose 0.5 to 4 g/kg orally
Experimental: Male Sprague Dawley rats of body weight of 150 to 200 grams are fasted overnight and glucose is then administered orally at the rate of 0.5 to 4 g/kg by using a stomach tube. Blood is drawn from the tail vein of each rat at suitable time intervals to determine glucose level in the blood. The glucose content in the blood increases rapidly to cause hyperglycemia.

lipid biosynthesis = assay: Ability to inhibit lipid biosynthesis
humans and other animals = assay: Ability to inhibit or reduce the increase of glucose levels in humans and other animals; format: in vivo; settings: upon administration of glucose or a glucose producing carbohydrate
[4] = 10 mg/kg oral, 0 min after administration
[5] = 10 mg/kg oral, 15 min after administration
[6] = 10 mg/kg oral, 30 min after administration
[7] = 10 mg/kg oral, 60 min after administration
[8] = 100 mg/kg oral, 0 min after administration
[9] = 100 mg/kg oral, 15 min after administration
[10] = 100 mg/kg oral, 30 min after administration
[11] = 100 mg/kg oral, 60 min after administration

OC[C@H]1NC[C@H](O)[C@@H](O)[C@@H]1O [compound of this invention, 2(R),3(R),4(R),5(S)-2-hydroxymethyl-3,4,5-trihydroxypiperidine]
Blood Glucose Concentration [1, 4]: 59 mg %
Blood Glucose Concentration [1, 5]: 100 mg %
Blood Glucose Concentration [1, 6]: 108 mg %
Blood Glucose Concentration [1, 7]: 107 mg %
Blood Glucose Concentration [1, 8]: 52 mg %
Blood Glucose Concentration [1, 9]: 59 mg %
Blood Glucose Concentration [1, 10]: 58 mg %
Blood Glucose Concentration [1, 11]: 63 mg %
Increase of glucose in the blood ([1]; 100 mg/kg): totally inhibited
Blood Glucose Concentration ([2]; 1 mg/kg oral, 0 min after administration, 5 rats): 69 mg %
Blood Glucose Concentration ([2]; 1 mg/kg oral, 15 min after administration, 5 rats): 98 mg %
Blood Glucose Concentration ([2]; 1 mg/kg oral, 30 min after administration, 5 rats): 121 mg %
Blood Glucose Concentration ([2]; 1 mg/kg oral, 60 min after administration, 5 rats): 127 mg %
Blood Glucose Concentration ([2]; 10 mg/kg oral, 0 min after administration, 6 rats): 47 mg %
Blood Glucose Concentration ([2]; 10 mg/kg oral, 15 min after administration, 6 rats): 57 mg %
Blood Glucose Concentration ([2]; 10 mg/kg oral, 30 min after administration, 6 rats): 52 mg %
Blood Glucose Concentration ([2]; 10 mg/kg oral, 60 min after administration, 6 rats): 97 mg %
Increase of glucose in the blood ([2]; 10 mg/kg): totally inhibited
Blood Glucose Concentration ([2]; 100 mg/kg oral, 0 min after administration, 5 rats): 52 mg %
Blood Glucose Concentration ([2]; 100 mg/kg oral, 15 min after administration, 5 rats): 66 mg %
Blood Glucose Concentration ([2]; 100 mg/kg oral, 30 min after administration, 5 rats): 63 mg %
Blood Glucose Concentration ([2]; 100 mg/kg oral, 60 min after administration, 5 rats): 64 mg %
Blood Glucose Concentration (Starch-Administered Rats; [4]): 53 mg %
Blood Glucose Concentration (Starch-Administered Rats; [5]): 67 mg %
Blood Glucose Concentration (Starch-Administered Rats; [6]): 80 mg %
Blood Glucose Concentration (Starch-Administered Rats; [7]): 83 mg %
Blood Glucose Concentration (Starch-Administered Rats; [8]): 52 mg %
Blood Glucose Concentration (Starch-Administered Rats; [9]): 57 mg %
Blood Glucose Concentration (Starch-Administered Rats; [10]): 63 mg %
Blood Glucose Concentration (Starch-Administered Rats; [11]): 59 mg %
Increase of glucose in the blood (Starch-Administered Rats; 100 mg/kg): totally inhibit increase of glucose in the blood
LD50 ([3]; intravenous administration): > 800 mg/kg
LD50 ([3]; oral administration): > 1200 mg/kg
toxicity (mice): very low
rise of the glucose content in the blood (healthy): rise of the glucose content in the blood is inhibited corresponding to the dosage
rise of the glucose content in the blood (rats): rise of the glucose content in the blood is inhibited
inhibition of lipid biosynthesis (lipid biosynthesis): inhibit lipid biosynthesis
increase of glucose levels (humans and other animals): inhibit or reduce the increase of glucose levels
